Our source for the TGI values is PubChem BioAssay (NCI).

Each structure is given as a SMILES string.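 Step 1: Grow cells in 96-well plates. Step 2: Expose to compound for 48 hours at 5 concentrations. Step 3: Interpolate endpoints linearly; if unreached, use highest concentration. At the TGI there is no net growth.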 Some results are limits rather than exact numbers.

Among the test systems are M14 melanoma; UACC-62 melanoma; OVCAR-3 ovarian; HCC-2998 colon; NCI-H226 lung; HL-60(TB) leukemia; OVCAR-5 ovarian; SK-MEL-5 melanoma; TK-10 renal; HT29 colon.
Assay in all cases: inhibition of tumour cell growth, NCI panel, 48 h

As for `Cc1cc(C)nc(NS(=O)(=O)c2ccc(NC(=O)c3ccc4nc5ccccc5c(Nc5ccc(S(=O)(=O)Nc6nc(C)cc(C)n6)cc5)c4c3)cc2)n1`, the TGI with M14 melanoma was > 100 µM; with UACC-62 melanoma, > 100 µM; in the assay with OVCAR-3 ovarian it was > 100 µM; in the assay with HCC-2998 colon, > 100 µM; in the assay with NCI-H226 lung, > 100 µM; in the assay on HL-60(TB) leukemia it was 79.1 µM. Moreover, the TGI with OVCAR-5 ovarian, in the assay with SK-MEL-5 melanoma, in the assay on TK-10 renal and with HT29 colon was > 100 µM in each case.

`CC(C)[Si](OC1=CCC[C@H]2NC(=O)[C@@H](Cc3ccc([N+](=O)[O-])cc3)[C@@]12C)(C(C)C)C(C)C`: the TGI in the assay with M14 melanoma was 26.2 µM; in the assay on UACC-62 melanoma it was 27.7 µM; in the assay on OVCAR-3 ovarian, 11.7 µM; in the assay with HCC-2998 colon, 4.22 µM; in the assay on HL-60(TB) leukemia it was 24.4 µM; in the assay on OVCAR-5 ovarian, 21.2 µM. Moreover, the figures for the TGI in the assay on SK-MEL-5 melanoma, in the assay on TK-10 renal and in the assay on HT29 colon were 5.58 µM, 23.9 µM and 5.13 µM, respectively.

In the case of `COc1cccc(-c2cc(=O)c3cc(N4CCCC4)ccc3[nH]2)c1`, the TGI in the assay on M14 melanoma is > 10 µM; in the assay on UACC-62 melanoma, > 10 µM; in the assay on OVCAR-3 ovarian, < 0.001 µM; in the assay with HCC-2998 colon, 0.013 µM; in the assay with NCI-H226 lung, 0.00347 µM; with HL-60(TB) leukemia it was < 0.001 µM. Further, the figures for the TGI with OVCAR-5 ovarian, in the assay with SK-MEL-5 melanoma and in the assay on TK-10 renal were > 10 µM, 0.00747 µM and > 10 µM, respectively.

With `CCOC(=O)C(C(=O)OCC)C(NC(=O)Nc1cc(C(F)(F)F)ccc1OC)(C(F)(F)F)C(F)(F)F`, the TGI stood at 45 µM with M14 melanoma; 88.8 µM in the assay with UACC-62 melanoma; 54.3 µM in the assay with OVCAR-3 ovarian; 85 µM in the assay on HCC-2998 colon; 72.4 µM in the assay on NCI-H226 lung; 48.9 µM in the assay with HL-60(TB) leukemia. Further, the TGI with OVCAR-5 ovarian is > 100 µM; in the assay with SK-MEL-5 melanoma, 39.6 µM; in the assay with TK-10 renal, > 100 µM; in the assay on HT29 colon, 92.1 µM.

For `NNC(=O)CSc1nnc(CCCCCCCCc2nnc(SCC(=O)NN)o2)o1`, the TGI in the assay on M14 melanoma, in the assay with UACC-62 melanoma, in the assay with HCC-2998 colon, in the assay with NCI-H226 lung, in the assay with HL-60(TB) leukemia and in the assay on OVCAR-5 ovarian was > 100 µM throughout. The TGI with SK-MEL-5 melanoma, with TK-10 renal and in the assay on HT29 colon was > 100 µM each time.

As to `C/C(CC(O)(C(F)(F)F)C(F)(F)F)=N/Nc1ccc([N+](=O)[O-])cc1[N+](=O)[O-]`, the TGI was > 10 µM with M14 melanoma; > 10 µM in the assay on UACC-62 melanoma; 8.33 µM in the assay with OVCAR-3 ovarian; > 10 µM with HCC-2998 colon; 6.66 µM in the assay on NCI-H226 lung; 7.94 µM with HL-60(TB) leukemia. Also, the TGI in the assay on SK-MEL-5 melanoma was 4 µM; in the assay with TK-10 renal it was > 10 µM; in the assay with HT29 colon it was > 10 µM.

Turning to `O=c1ccc2nc3ccc(O)cc3oc-2c1`, the TGI in the assay on M14 melanoma is 19.5 µM; in the assay on UACC-62 melanoma, 5.55 µM; with OVCAR-3 ovarian, > 85.7 µM; with HCC-2998 colon, > 100 µM; with NCI-H226 lung it was > 100 µM; with HL-60(TB) leukemia, 25.4 µM. In addition, the TGI in the assay with OVCAR-5 ovarian was > 100 µM; in the assay on SK-MEL-5 melanoma it was 2.95 µM; in the assay on TK-10 renal, > 100 µM; in the assay with HT29 colon it was > 75.9 µM.

With `S=c1sscc1N1CCSc2ssc(=S)c21`, the TGI in the assay with M14 melanoma, in the assay on UACC-62 melanoma, with HCC-2998 colon, with NCI-H226 lung, in the assay with HL-60(TB) leukemia and with OVCAR-5 ovarian was > 100 µM throughout. In addition, the figures for the TGI in the assay on SK-MEL-5 melanoma, with TK-10 renal and in the assay with HT29 colon were > 100 µM, 81.8 µM and > 100 µM, respectively.

Regarding `CCOC(=O)/C=C1\C[C@H](NC(=O)OCc2ccccc2)C(=O)N1CC(=O)OCC`, the TGI with M14 melanoma, with UACC-62 melanoma, with OVCAR-3 ovarian, with HCC-2998 colon, in the assay with NCI-H226 lung and with HL-60(TB) leukemia was > 100 µM in each case. Besides, the TGI in the assay with OVCAR-5 ovarian, with SK-MEL-5 melanoma, in the assay on TK-10 renal and in the assay on HT29 colon was > 100 µM in each case.

Turning to `CCC12C=CCN3CCC4(C(=C(C(=O)OC)C1)Nc1ccccc14)[C@H]32` (stereo not given in full), the TGI is 50.8 µM in the assay with M14 melanoma; 67.6 µM with UACC-62 melanoma; > 100 µM in the assay on OVCAR-3 ovarian; > 100 µM in the assay with HCC-2998 colon; 86.7 µM with NCI-H226 lung; 88.7 µM with HL-60(TB) leukemia. Moreover, the TGI is > 100 µM in the assay on OVCAR-5 ovarian, > 100 µM in the assay on SK-MEL-5 melanoma, > 100 µM with TK-10 renal and 46.8 µM in the assay with HT29 colon.

Regarding `NC1=CN(Cc2ccccc2)C2=N/C(=C\c3ccco3)C(=O)N12`, the TGI with M14 melanoma, with UACC-62 melanoma, in the assay with OVCAR-3 ovarian, with HCC-2998 colon, in the assay on NCI-H226 lung and in the assay on HL-60(TB) leukemia was > 100 µM each time. Further, the TGI in the assay on OVCAR-5 ovarian, with SK-MEL-5 melanoma, in the assay on TK-10 renal and in the assay on HT29 colon was > 100 µM throughout.

`CCN1CCC(O)(/C=C/c2ccc(Cl)cc2)C(C(=O)/C=C/c2ccc(Cl)cc2)C1` (stereo not given): the TGI in the assay with M14 melanoma was > 100 µM; in the assay on UACC-62 melanoma it was 42.2 µM; in the assay on OVCAR-3 ovarian, 40.2 µM; in the assay with HCC-2998 colon it was 32.8 µM; with NCI-H226 lung it was 43.6 µM; with HL-60(TB) leukemia it was > 100 µM. For the same molecule, the TGI with OVCAR-5 ovarian is > 100 µM; in the assay on SK-MEL-5 melanoma, 28.3 µM; in the assay on TK-10 renal it was > 100 µM; with HT29 colon, 42.8 µM.

In the case of `CCOC(=O)c1c(CN2CCOCC2)n(Cc2ccccc2)c2c1cc(O)c1nc(C)c(C)nc12`, the TGI in the assay with M14 melanoma, in the assay with UACC-62 melanoma, with OVCAR-3 ovarian, with HCC-2998 colon, with NCI-H226 lung and with HL-60(TB) leukemia was > 100 µM in each case. The TGI in the assay with OVCAR-5 ovarian is > 100 µM; in the assay on SK-MEL-5 melanoma, 57.4 µM; in the assay on TK-10 renal, 97.7 µM; in the assay with HT29 colon, > 100 µM.

In the case of `C#CC1(O)CC(c2ccccc2)N(C)C(c2ccccc2)C1` (stereo not given), the TGI with M14 melanoma, in the assay on UACC-62 melanoma, in the assay with OVCAR-3 ovarian, in the assay on HCC-2998 colon, with NCI-H226 lung and with HL-60(TB) leukemia was > 100 µM throughout. Also, the TGI in the assay on OVCAR-5 ovarian, with SK-MEL-5 melanoma, with TK-10 renal and with HT29 colon was > 100 µM throughout.
